Data from ChEMBL document CHEMBL3779836, “Inhibition of Histone Demethylases Offers a Novel and Promising Approach for the Treatment of Cancer and Other Diseases” (ACS Med Chem Lett, 2016).

Legend:
[1] = molecular target: T1, Lysine-specific demethylase 4C (Homo sapiens, UniProt Q9H3R0); assay: Inhibition of human KDM4C preincubated for 10 mins followed by substrate addition by AlphaLISA assay
T1 sequence (Q9H3R0 whole entry): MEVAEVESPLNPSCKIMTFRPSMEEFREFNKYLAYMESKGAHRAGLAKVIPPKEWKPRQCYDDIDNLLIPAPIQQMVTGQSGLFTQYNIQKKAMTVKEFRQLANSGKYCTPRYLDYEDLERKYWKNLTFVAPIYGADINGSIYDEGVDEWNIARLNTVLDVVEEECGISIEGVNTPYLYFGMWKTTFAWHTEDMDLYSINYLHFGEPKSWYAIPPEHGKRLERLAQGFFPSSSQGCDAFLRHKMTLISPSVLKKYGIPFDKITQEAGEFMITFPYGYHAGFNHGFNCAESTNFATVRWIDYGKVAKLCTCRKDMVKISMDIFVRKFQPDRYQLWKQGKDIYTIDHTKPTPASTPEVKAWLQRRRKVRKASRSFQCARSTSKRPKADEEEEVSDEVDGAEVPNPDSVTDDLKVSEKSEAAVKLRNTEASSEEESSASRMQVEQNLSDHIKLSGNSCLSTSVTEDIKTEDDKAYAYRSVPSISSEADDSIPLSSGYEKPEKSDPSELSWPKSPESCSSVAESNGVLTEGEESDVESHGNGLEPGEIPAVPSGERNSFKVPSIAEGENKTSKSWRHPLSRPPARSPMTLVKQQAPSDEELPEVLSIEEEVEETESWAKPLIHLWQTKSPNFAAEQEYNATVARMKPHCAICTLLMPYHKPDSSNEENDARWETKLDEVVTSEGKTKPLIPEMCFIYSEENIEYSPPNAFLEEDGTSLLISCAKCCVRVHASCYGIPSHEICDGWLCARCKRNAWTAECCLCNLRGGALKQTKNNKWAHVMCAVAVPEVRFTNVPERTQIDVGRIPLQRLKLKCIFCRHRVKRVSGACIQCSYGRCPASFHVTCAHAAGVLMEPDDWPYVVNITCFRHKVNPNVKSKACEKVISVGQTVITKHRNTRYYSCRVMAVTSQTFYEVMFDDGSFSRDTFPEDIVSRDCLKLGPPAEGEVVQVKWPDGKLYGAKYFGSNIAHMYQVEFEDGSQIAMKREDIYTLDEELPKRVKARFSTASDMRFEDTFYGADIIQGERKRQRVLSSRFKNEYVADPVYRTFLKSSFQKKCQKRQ

[2] = molecular target: T2, Lysine-specific demethylase 2B (Homo sapiens, UniProt Q8NHM5); assay: Inhibition of human KDM2B preincubated for 10 mins followed by substrate addition by AlphaLISA assay
T2 sequence (Q8NHM5 whole entry): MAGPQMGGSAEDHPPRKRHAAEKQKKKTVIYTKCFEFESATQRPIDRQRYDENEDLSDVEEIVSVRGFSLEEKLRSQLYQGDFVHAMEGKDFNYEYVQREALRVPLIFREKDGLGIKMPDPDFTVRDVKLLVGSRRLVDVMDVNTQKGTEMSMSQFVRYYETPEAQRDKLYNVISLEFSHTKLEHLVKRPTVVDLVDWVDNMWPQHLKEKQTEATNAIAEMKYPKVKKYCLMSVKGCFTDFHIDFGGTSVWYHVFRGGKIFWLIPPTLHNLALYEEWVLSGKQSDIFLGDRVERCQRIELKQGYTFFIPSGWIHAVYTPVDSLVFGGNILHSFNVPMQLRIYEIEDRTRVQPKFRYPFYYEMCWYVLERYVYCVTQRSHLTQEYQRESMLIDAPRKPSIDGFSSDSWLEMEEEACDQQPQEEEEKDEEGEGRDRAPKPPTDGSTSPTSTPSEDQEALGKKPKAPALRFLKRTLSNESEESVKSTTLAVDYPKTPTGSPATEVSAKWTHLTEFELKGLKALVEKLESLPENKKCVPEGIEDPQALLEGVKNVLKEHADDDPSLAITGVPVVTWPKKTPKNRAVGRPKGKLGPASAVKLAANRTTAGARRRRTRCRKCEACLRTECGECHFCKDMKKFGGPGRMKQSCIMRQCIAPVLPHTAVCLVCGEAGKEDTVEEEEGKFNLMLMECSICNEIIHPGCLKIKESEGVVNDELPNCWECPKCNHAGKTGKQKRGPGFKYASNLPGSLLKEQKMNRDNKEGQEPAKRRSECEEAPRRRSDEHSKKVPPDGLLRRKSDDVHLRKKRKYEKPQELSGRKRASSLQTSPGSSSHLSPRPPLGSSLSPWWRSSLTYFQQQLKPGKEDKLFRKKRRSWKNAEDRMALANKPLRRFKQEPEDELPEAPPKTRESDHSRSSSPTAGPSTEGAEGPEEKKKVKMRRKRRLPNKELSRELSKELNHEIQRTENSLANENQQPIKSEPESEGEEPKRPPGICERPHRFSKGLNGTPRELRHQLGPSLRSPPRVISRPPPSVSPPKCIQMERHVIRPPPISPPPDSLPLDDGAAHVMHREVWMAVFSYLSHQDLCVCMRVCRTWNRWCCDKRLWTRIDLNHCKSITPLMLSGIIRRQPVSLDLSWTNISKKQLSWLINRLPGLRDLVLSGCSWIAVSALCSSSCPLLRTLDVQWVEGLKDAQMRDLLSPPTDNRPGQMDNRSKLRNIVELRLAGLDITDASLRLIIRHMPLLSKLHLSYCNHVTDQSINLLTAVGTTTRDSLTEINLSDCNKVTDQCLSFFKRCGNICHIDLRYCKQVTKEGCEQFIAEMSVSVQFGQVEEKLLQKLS

[3] = molecular target: Histone lysine demethylase PHF8 (Homo sapiens, UniProt Q9UPP1); assay: Inhibition of human PHF8 preincubated for 10 mins followed by substrate addition by AlphaLISA assay
Histone lysine demethylase PHF8, sequence (Q9UPP1 whole entry): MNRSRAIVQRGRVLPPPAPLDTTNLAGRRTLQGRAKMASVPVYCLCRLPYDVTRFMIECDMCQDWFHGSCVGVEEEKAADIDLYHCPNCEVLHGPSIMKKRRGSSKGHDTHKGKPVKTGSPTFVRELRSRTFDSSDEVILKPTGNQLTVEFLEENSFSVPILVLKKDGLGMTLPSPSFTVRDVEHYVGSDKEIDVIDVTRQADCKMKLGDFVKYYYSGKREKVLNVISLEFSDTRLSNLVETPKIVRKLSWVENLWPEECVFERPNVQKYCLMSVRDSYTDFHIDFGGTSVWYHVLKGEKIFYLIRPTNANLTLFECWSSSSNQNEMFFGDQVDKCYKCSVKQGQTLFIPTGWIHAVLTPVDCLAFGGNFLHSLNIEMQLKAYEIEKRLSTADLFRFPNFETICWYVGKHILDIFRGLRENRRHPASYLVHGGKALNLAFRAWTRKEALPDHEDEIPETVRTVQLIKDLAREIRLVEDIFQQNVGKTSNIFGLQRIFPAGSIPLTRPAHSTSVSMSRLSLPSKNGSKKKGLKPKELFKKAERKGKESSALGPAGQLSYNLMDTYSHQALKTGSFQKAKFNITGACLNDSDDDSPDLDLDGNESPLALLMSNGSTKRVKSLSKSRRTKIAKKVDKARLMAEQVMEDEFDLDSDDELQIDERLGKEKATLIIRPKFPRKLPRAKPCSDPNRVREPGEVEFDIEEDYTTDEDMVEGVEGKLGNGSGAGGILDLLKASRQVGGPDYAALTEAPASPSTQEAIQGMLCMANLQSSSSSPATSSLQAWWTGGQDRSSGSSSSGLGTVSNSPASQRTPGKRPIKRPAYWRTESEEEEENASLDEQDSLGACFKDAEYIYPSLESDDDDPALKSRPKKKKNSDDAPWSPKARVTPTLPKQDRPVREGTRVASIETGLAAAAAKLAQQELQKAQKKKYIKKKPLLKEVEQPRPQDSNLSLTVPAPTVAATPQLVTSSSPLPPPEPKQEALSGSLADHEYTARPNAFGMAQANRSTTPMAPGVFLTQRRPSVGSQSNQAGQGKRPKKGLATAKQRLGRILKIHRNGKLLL

[4] = molecular target: Lysine-specific demethylase 6A (Homo sapiens, UniProt O15550); assay: Inhibition of human KDM6A preincubated for 10 mins followed by substrate addition by AlphaLISA assay
Lysine-specific demethylase 6A, sequence (O15550 whole entry): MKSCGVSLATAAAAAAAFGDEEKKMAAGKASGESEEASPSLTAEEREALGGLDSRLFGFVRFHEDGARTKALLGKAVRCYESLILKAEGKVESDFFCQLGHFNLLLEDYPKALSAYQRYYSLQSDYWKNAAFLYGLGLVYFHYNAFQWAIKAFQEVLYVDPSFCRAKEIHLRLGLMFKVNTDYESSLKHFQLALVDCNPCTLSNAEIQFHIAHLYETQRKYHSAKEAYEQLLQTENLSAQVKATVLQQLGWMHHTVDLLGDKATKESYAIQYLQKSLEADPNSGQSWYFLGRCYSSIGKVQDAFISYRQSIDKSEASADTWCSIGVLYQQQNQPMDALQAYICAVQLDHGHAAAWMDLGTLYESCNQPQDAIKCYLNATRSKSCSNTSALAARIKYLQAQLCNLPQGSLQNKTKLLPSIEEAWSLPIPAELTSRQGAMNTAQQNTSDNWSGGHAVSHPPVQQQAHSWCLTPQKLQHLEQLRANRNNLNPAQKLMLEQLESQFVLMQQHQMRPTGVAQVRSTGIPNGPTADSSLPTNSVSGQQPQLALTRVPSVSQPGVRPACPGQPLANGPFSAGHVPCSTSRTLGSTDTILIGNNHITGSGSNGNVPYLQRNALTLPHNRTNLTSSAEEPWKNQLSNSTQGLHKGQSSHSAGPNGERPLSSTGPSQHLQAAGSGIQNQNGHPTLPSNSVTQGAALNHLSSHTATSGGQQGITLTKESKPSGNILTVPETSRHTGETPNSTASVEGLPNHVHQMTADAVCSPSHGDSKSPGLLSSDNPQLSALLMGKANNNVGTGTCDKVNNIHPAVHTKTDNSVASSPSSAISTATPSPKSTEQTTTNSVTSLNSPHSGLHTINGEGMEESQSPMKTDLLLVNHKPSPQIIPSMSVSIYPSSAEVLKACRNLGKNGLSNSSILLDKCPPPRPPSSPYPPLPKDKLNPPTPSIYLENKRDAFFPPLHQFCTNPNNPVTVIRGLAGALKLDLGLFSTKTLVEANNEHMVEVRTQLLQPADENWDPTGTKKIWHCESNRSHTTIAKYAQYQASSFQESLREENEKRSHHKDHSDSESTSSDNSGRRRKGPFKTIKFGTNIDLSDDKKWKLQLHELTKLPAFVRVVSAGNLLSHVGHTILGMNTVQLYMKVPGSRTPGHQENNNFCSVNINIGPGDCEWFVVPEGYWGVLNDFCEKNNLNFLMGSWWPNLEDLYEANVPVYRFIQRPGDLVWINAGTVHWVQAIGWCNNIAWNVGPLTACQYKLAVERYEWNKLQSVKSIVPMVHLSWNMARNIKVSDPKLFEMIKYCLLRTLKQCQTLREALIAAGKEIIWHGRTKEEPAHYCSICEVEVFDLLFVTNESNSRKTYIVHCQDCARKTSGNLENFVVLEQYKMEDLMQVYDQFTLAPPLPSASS

[5] = molecular target: Lysine-specific demethylase 5B (Homo sapiens, UniProt Q9UGL1); assay: Inhibition of human KDM5B preincubated for 10 mins followed by substrate addition by AlphaLISA assay
Lysine-specific demethylase 5B, sequence (Q9UGL1 whole entry): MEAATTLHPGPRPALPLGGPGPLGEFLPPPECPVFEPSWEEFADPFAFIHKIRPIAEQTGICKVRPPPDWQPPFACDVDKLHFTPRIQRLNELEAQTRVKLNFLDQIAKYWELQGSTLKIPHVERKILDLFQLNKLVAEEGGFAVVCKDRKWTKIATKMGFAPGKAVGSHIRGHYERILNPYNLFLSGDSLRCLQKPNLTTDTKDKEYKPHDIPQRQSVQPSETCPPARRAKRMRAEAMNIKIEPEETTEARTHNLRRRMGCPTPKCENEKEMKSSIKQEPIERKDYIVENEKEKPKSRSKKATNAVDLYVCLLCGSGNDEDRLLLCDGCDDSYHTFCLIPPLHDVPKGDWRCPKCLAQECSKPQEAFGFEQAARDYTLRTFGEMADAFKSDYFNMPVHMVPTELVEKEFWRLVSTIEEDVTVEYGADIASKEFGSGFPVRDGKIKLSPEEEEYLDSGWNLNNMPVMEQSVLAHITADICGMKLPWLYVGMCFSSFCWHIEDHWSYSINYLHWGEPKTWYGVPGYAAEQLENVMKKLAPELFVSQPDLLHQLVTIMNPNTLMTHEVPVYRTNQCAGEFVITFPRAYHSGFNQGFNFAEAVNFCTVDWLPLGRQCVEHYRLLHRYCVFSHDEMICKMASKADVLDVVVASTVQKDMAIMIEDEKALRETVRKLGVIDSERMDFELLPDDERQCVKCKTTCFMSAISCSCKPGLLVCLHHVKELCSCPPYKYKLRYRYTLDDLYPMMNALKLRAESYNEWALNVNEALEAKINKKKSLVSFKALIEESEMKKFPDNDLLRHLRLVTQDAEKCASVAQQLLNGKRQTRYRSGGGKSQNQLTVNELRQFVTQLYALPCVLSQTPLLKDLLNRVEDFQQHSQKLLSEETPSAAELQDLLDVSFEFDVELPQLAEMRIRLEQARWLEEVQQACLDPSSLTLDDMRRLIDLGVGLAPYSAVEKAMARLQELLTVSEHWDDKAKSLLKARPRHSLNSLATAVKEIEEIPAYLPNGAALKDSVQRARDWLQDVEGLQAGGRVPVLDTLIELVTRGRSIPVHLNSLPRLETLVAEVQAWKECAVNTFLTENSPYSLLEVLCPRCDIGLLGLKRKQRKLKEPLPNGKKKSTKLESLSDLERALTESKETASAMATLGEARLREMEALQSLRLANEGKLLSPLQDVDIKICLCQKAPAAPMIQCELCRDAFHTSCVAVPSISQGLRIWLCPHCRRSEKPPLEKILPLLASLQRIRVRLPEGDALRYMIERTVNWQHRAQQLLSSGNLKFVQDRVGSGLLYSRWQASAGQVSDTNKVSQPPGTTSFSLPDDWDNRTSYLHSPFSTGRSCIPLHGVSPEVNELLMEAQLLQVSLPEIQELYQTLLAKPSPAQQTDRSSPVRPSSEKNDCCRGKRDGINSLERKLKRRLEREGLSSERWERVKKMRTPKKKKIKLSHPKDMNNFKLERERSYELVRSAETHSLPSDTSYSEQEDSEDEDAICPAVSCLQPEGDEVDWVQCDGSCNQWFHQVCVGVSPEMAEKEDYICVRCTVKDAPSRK

| SMILES | IC50 [1] | IC50 [2] | IC50 [3] | IC50 [4] | IC50 [5] |
| --- | --- | --- | --- | --- | --- |
| Cc1cn2c(n1)CCN(Cc1cc(C(=O)O)ccn1)CC2 | < 250 nM | > 2500 nM | < 250 nM | > 2500 nM | < 250 nM |
| C[C@H](c1ccccc1)N1CCC[C@H](CNCc2cc(C(=O)O)ccn2)C1=O | < 250 nM | < 250 nM | < 250 nM | > 2500 nM | < 250 nM |
| C[C@H](c1ccccc1)N1CCC[C@@H](CNCc2cc(C(=O)O)ccn2)C1=O | < 250 nM | < 250 nM | < 250 nM | > 2500 nM | < 250 nM |
| C[C@H](c1ccccc1)N1CC[C@@H](CNCc2cc(C(=O)O)ccn2)C1=O | < 250 nM | < 250 nM | < 250 nM | > 2500 nM | < 250 nM |
| COc1ccc([C@@H](C)N2CCC[C@@H](CNCc3cc(C(=O)O)ccn3)C2=O)cc1 | < 250 nM | < 250 nM | < 250 nM | > 2500 nM | < 250 nM |
| CCN1CCC(CNCc2cc(C(=O)O)ccn2)C1=O (stereo not given) | < 250 nM | < 250 nM | < 250 nM | > 2500 nM | < 250 nM |
